Literature values in patent US20110281813A1, “METHOD OF TREATING C-KIT POSITIVE RELAPSED ACUTE MYELOID LEUKEMIA” (priority 2008, published 2011).
Counter-ions that a name gives are not always drawn.

Test system: relapsed/ refractory AML

Structure (SMILES): Cc1ccc(NC(=O)c2ccc(CN3CCN(C)CC3)cc2)cc1Nc1nccc(-c2cccnc2)n1 [Imatinib mesylate, 4-(4-methylpiperazin-1-ylmethyl)-N-[4-methyl-3-(4-(pyridin-3-yl)pyrimidin-2-ylamino)phenyl]-benzamide]
- single agent activity: has single agent activity
